Data as given in PubChem BioAssay (NCI).
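48-hour exposure; five concentrations; linearly interpolated endpoints. GI50 = concentration required for 50% inhibition of growth. TGI denotes the concentration required for complete inhibition of growth.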

Test system: MDA-MB-468 breast
Assay: NCI anticancer screen, dose series, 48 h

Structure (SMILES)	GI50	TGI
COc1cccc(-c2nc(-c3ccc(NC(=O)C(C)C)cc3)[nH]c2-c2ccnc(Br)c2)c1	1890 nM	5400 nM
O=C(CCc1nnc2sc(-c3ccc(Cl)cc3Cl)nn12)c1nc2ncccc2[nH]1	2090 nM	4410 nM
COc1ccc(-c2nnc(COc3ccc(NC(=O)Nc4cc(C(F)(F)F)cc(C(F)(F)F)c4)cc3F)o2)cc1	1550 nM	5040 nM
CCN1CCN(c2nc(C)cc(N(CCNc3ccnc4cc(Cl)ccc34)Cc3ccc4c(c3)OCO4)n2)CC1	1550 nM	3340 nM
O=C1c2cc3c(cc2-c2c1c1ccc(F)cc1c(=O)n2CCCNCCO)OCO3	22.8 nM	70.5 nM
CC[C@H](Nc1ncnc2nc[nH]c12)c1oc2ccccc2c(=O)c1-c1cccc(F)c1	9080 nM	34400 nM
COc1ccc(-c2nnc(COc3ccc(C(=O)/C=C/c4ccco4)cc3)o2)cc1	1890 nM	4120 nM
OC(c1cc(-c2ccc(C(F)(F)F)cc2)nc(-c2ccc(C(F)(F)F)cc2)c1)C1CCCCN1 (stereo not given)	1470 nM	2820 nM
COc1cc(/C=C/C(=O)c2cc(OC)c(OC)c(OC)c2)ccc1OCc1ccccc1	2150 nM	7980 nM
Fc1cc2[nH]ncc2c2c3c(c(-c4cn[nH]c4)nc12)CCCC3	857 nM	2580 nM
CC(C)[C@H]1COC(=O)N1[C@@H]1C(=O)N([C@@H](CCC(=O)N2CCN(C3CCCC3)CC2)C(=O)N[C@@H]2CCCc3ccccc32)[C@@H]1/C=C/c1cccc(Br)c1	688 nM	2120 nM
N#C/C(=N\Nc1ccc(F)cc1)C(=O)Nc1cc(-c2ccccc2)nn1-c1ccccc1	1460 nM	6010 nM
C=C1NC(=O)C(C(C)CC)NC(=O)C2CSCC(NC(=O)CCC(=O)O)C(=O)NC(Cc3ccccc3)C(=O)NC(C)C(=O)NC(CC(C)CC)C(=O)NC(C(=O)NC(Cc3ccccc3)C(=O)N3CCCC3C(=O)N2)C(C)OC(=O)C(CO)NC(=O)C(C(O)COC)N(C)C(=O)C(C(C)C)NC(=O)C(CC(C)CC)NC1=O (stereo not given)	< 14 nM	–
CCN(CC)c1ccc(-c2cc(-c3cc(OC)c(OC)c(OC)c3)nc(N3CCOCC3)c2C#N)cc1	2580 nM	> 100000 nM
COc1ccc(/C=C(/C#N)n2nnc3cccc(F)c32)cc1	414 nM	5120 nM
O=c1c2sccc2n(CC2COc3ccccc3O2)c(=O)n1O (stereo not given)	4610 nM	57400 nM
CO[C@H]1/C=C(/C)CCC[C@H](C)[C@H](O)[C@@H](C)C(=O)C(C)(C)[C@@H](O)CC(=O)O[C@@H]1/C(C)=C/c1csc(C)n1	< 10 nM	46.3 nM
Cc1cc(/C=C/c2ccc3cc(N(C)C)ccc3[n+]2C)c(C)n1-c1ccccc1	48.6 nM	230 nM
Cc1cc(-c2ccc3nc(C4CCOCC4)n(CCOC(F)(F)F)c3c2)cn(C)c1=O	188 nM	2250 nM
O=C(CSc1ccc(Cl)cc1)Nc1ccc(-c2nc3ccccc3s2)c(Cl)c1	4520 nM	48500 nM
O=C(/C=C/c1ccc(Cl)cc1)c1ccc(Nc2ccnc3cc(Cl)ccc23)cc1	43100 nM	> 100000 nM
CCCCCCCC(=O)SCC/C=C/[C@@H]1CC(=O)NCc2cc(ccn2)C2=N[C@@](C)(CS2)C(=O)N[C@@H](C(C)C)C(=O)O1	55 nM	> 33300 nM
CN(C(=O)c1ccc(C(F)(F)F)cc1)c1ccc(Oc2ccc3c(c2)cc(C(=O)N2CCN(Cc4ccc(OC(F)F)cc4)CC2)n3C)nc1	< 10 nM	28600 nM
O=C(/C=C/c1ccncc1)c1cc(Cl)ccc1O	18100 nM	33000 nM
O=C1OC(O)[C@@H]2[C@H]1[C@H]1CC[C@@H]2O1 (stereo not given in full)	85900 nM	> 100000 nM
C=C1C(=O)O[C@H]2[C@H]1CC/C(COC(=O)c1c[nH]c3ccccc13)=C\CC[C@@]1(C)O[C@@H]21	190 nM	448 nM
Cn1cnc([N+](=O)[O-])c1S(=O)(=O)Oc1cccc2ccccc12	1850 nM	3840 nM
COc1cc(/C=C/c2cc(O)c(C(C)=O)c(O)c2)cc2c1O[C@]1(C)CC[C@@H](O)C(C)(C)[C@H]1C2	4750 nM	31200 nM
